Source: patent US12528774B2, “Thiosemicarbazone compounds and uses thereof” (The Regents of the University of California, priority 2019, dated 2026)
Read-outs that look alike come from different tables or passages of the source.

Tested on: MIAPACA2 cells
Assay: Proliferation assay (CellTiter-Glo, 72 h) in MIAPACA2 cells
Assay type: cell-based, human
Conditions: for IC90: MIAPACA2, 72 h; for potency relative to non-fluorinated analog: IC90 without copper, analog of same 4′ amine series (HCT1, HCT6 or HCT11); for increase in potency under copper supplementation versus non-copper-supplemented IC90: 20 μM CuCl2
Procedure: IC90 values against MIAPACA2 cells was first determined in normal cell culture conditions (DMEM media and 10% FBS). Compounds were separated into three series (4′ primary amines, 4′ secondary amines, 4′ tertiary amines) to reflect the relative degrees of 4′ amine methylation. […] (Refs 41, 42).
HCT compounds are known to be copper chelators. (Ref. 32). To test whether the compounds described herein were similarly potentiated, the IC90 (+Cu IC90) values were determined against MIAPACA2 cells in media supplemented with physiologically relevant levels of copper (DMEM media+10% FBS+20 μM CuCl2). MIAPACA2 cells were treated with the indicated HCT±20 μM Cu(II) for 72 hours, then cell viability was measured with CellTiter-Glo to determine IC90 values.
(§1) Proliferation assay: Cells were plated in 384-well plates (500 cells/well for adherent cell lines in 30 μl volume). Drugs were serially diluted to the desired concentrations and an equivalent volume of DMSO was added to vehicle control. Following 72 h incubation, ATP content was measured using CellTiter-Glo reagent according to manufacturer's instructions (Promega, CellTiter-Glo Luminescent Cell Viability Assay), and analyzed by SpectraMax luminometer (Molecular Devices). IC50 and IC90 values, concentrations required to inhibit proliferation by 50% and 90% respectively compared to DMSO treated cells, were calculated using Prism 6.0 h (Graphpad Software).
as §1, with “assay.” for “assay:”, “Software). The 430-member protein kinase inhibitor library used for the chemical genomics screen was purchased from Selleckchem, Catalog No. L1200.” for “Software).”

[1] = Homo sapiens, MIA PaCa-2, 72 h, DMEM + 10% FBS, no copper supplementation, read-out: IC90
[2] = DMEM + 10% FBS + 20 μM CuCl2, read-out: +Cu(II) IC90

| IC90 [1] [µM] | IC90 [2] [µM] | increase in potency under copper supplementation versus non-copper-supplemented IC90 | increase in potency under copper supplementation versus non-copper-supplemented IC90 (listed as 11) | increase in potency under copper supplementation versus non-copper-supplemented IC90 (listed as 6) | Structure (SMILES) | potency relative to non-fluorinated analog | effect on proliferation (20 μM Cu(II) alone) |
| --- | --- | --- | --- | --- | --- | --- | --- |
| 2.08 | 0.114 | – | – | – | CNC(=S)N/N=C/c1ncc(F)c2ccccc12 [HCT7, (E)-2-((4-Fluoroisoquinolin-1-yl)methylene)-N-methylhydrazine-1-carbothioamide] | significantly more potent | – |
| 5.44 | 2.04 | – | – | – | NC(=S)N/N=C/c1nccc2cc(F)ccc12 [HCT3, (E)-2-((6-Fluoroisoquinolin-1-yl)methylene)hydrazine-1-carbothioamide] | 3 fold | – |
| 0.327 | 0.0423 | – | – | – | CNc1cccc2c(/C=N/NC(=S)N(C)C)ncc(F)c12 (mixture of isomers) [HCT15, (E)-2-((4-Fluoro-5-(methylamino)isoquinolin-1-yl)methylene)-N,N-dimethylhydrazine-1-carbothioamide and (Z)-2-((4-Fluoro-5-(methylamino)isoquinolin-1-yl)methylene)-N,N-dimethylhydrazine-1-carbothioamide] | – | – |
| 4.08 | 0.233 | – | – | – | CNC(=S)N/N=C/c1nccc2cc(F)ccc12 [HCT8, (E)-2-((6-Fluoroisoquinolin-1-yl)methylene)-N-methylhydrazine-1-carbothioamide] | significantly more potent | – |
| 40.5 | 71.1 | attenuated | – | – | NC(=S)N/N=C/c1nccc2c(N)cccc12 [HCT5, (E)-2-((5-Aminoisoquinolin-1-yl)methylene)hydrazine-1-carbothioamide, reference compound] | – | – |
| 0.272 | 0.0384 | – | – | – | CNc1c(F)ccc2c(/C=N/NC(=S)N(C)C)nccc12 (mixture of isomers) [HCT14, (E)-2-((6-Fluoro-5-(methylamino)isoquinolin-1-yl)methylene)-N,N-dimethylhydrazine-1-carbothioamide and (Z)-2-((6-Fluoro-5-(methylamino)isoquinolin-1-yl)methylene)-N,N-dimethylhydrazine-1-carbothioamide] | – | – |
| 29.6 | 0.0737 | 400 fold | significantly increased | – | CN(C)C(=S)N/N=C/c1nccc2ccccc12 (mixture of isomers) [HCT11, (E)-2-(Isoquinolin-1-ylmethylene)-N,N-dimethylhydrazine-1-carbothioamide and (Z)-2-(Isoquinolin-1-ylmethylene)-N,N-dimethylhydrazine-1-carbothioamide] | – | – |
| 18.1 | 2.21 | 10 fold | – | – | NC(=S)N/N=C/c1nccc2ccccc12 [HCT1, (E)-2-(isoquinolin-1-ylmethylene)hydrazine-1-carbothioamide, reference compound] | – | – |
| 11.2 | 7.87 | – | – | – | CNC(=S)N/N=C/c1nccc2c(N)cccc12 (mixture of isomers) [HCT10, 2-((5-Aminoisoquinolin-1-yl)methylene)-N-methylhydrazine-1-carbothioamide and (Z)-2-((5-Aminoisoquinolin-1-yl)methylene)-N-methylhydrazine-1-carbothioamide] | – | – |
| 0.274 | 0.0266 | – | – | – | CN(C)C(=S)N/N=C/c1ncc(F)c2ccccc12 (mixture of isomers) [HCT12, (E)-2-((4-Fluoroisoquinolin-1-yl)methylene)-N,N-dimethylhydrazine-1-carbothioamide and (Z)-2-((4-Fluoroisoquinolin-1-yl)methylene)-N,N-dimethylhydrazine-1-carbothioamide] | roughly 110 fold | – |
| – | – | – | – | – | [Cl][Cu][Cl] [Cu(II), CuCl2] | – | did not affect proliferation at all |
| 4.24 | 0.607 | significantly increased | – | – | CNC(=S)N/N=C/c1nccc2c(NC)cccc12 [HCT9, E)-N-Methyl-2-((5-(methylamino)isoquinolin-1-yl)methylene)hydrazine-1-carbothioamide and (Z)—N-Methyl-2-((5-(methylamino)isoquinolin-1-yl)methylene)hydrazine-1-carbothioamide] | – | – |
| 18.7 | 0.331 | 60 fold | – | significantly increased | CNC(=S)N/N=C/c1nccc2ccccc12 [HCT6, (E)-2-(isoquinolin-1-ylmethylene)-N-methylhydrazine-1-carbothioamide, reference compound] | – | – |
| 24.6 | 2.06 | – | – | – | NC(=S)N/N=C/c1ncc(F)c2ccccc12 [HCT2, (E)-2-((4-Fluoroisoquinolin-1-yl)methylene)hydrazine-1-carbothioamide] | did not show an increase in potency | – |
| 11.5 | 5.33 | – | – | – | CNc1cccc2c(/C=N/NC(N)=S)nccc12 [HCT4, (E)-2-((5-(Methylamino)isoquinolin-1-yl)methylene)hydrazine-1-carbothioamide, reference compound] | – | – |
